Source: US20150309029A1, “Methods for Cancer Diagnosis, Anti-Cancer Drug Screening, and Test of Drug Effectiveness on the Basis of Phoshorylation of Ras at Thr-144 and Thr-148” (Industry-Academic Cooperation Foundation, Yonsei University, priority 2010, published 2015)
Where a SMILES comes first, the peptide text is derived from it. [ ]: non-standard residue; d: D form. Nle = CCCC[C@H](N)C(=O)O

Columns and labels:
Format in all cases: cell-based, human
[1] = tested on: phosphor-mimetic form of H-Ras; assay: Immunoblot of phospho-mimetic H-Ras level in transfected HEK293 cells after ALLN; conditions: ALLN for 12 hours, immunoblot (FIG. 5A lower panels)
Experimental: The protein expression level of the phosphorylation mimetic mutant is too low to be detected due to the severe destabilization; therefore, the proteasomal inhibitor, ALLN was treated to check for the accumulation of phosphor-mimetic form of H-Ras.
HEK293 cells were transfected with pcDNA3.1-H-Ras, pcDNA3.1-H-Ras-T144E/T148E, or pcDNA3.1-H-Ras-T144D/T148D. For indicated cases, ALLN was also administered for 12 hours. WCEs were immunoblotted with anti-Myc or -α-tubulin antibody (FIG. 5A lower panels). Treatment with ALLN increased the level of phosphor-mimetic form of H-Ras.

[2] = tested on: polyubiquitin-conjugated K- and N-Ras proteins; assay: IP/immunoblot of polyubiquitinated K- and N-Ras in transfected HEK293 cells after ALLN; conditions: ALLN treatment, IP with anti-Myc (FIG. 8A)
Experimental: To examine the possibility that K- and N-Ras proteins, similar to H-Ras, were subjected to polyubiquitination by proteasomal degradation, HEK293 cells were transfected with pcDNA3.1-H-Ras, pcDNA3.1-K-Ras, or pcDNA3.1-N-Ras with pCS4-3xFlag-Ub. Cells were treated with ALLN followed by IP with anti-Myc antibody and then immunoblotted with anti-Myc, -α-tubulin, or -Flag antibody. […] Therefore, we confirmed that H-, K-, N-Ras protein stability is regulated by polyubiquitin-dependent proteasomal degradation (FIG. 8A).

Pan-Ras = assay: Polyubiquitination of endogenous Pan-Ras in HEK293 cells with Gsk3β siRNA; conditions: siRNA knockdown, ALLN 12 hours (FIG. 1A)
Experimental: Full-length human H-Ras was isolated from a HEK293 cell cDNA library by PCR and then inserted into the pcDNA-3.1-myc vector using EcoRI and HindIII restriction sites. PcDNA3.1-Gsk3β-V5 was constructed in a similar method. HEK293 cells were transfected with vector/nonspecific siRNA, Gsk3β siRNA, or pcDNA3.1-Gsk3β-V5 together with pCS4-3xFlag-Ub for 24 hours and treated with the proteasome inhibitor ALLN for 12 hours. WCEs (whole cell extracts) were then immunoprecipitated (IP) with anti-Pan-Ras antibody to detect the polyubiquitinated H-Ras. WCEs were immunoblotted with antibodies to Gsk3β, Pan-Ras, Myc-H-Ras or α-tubulin. The siRNA sequences for Gsk3β NM_002093) were 5′-[…]-3′ (SEQ ID NO: 2) and 5′-[…]-3′ (SEQ ID NO: 3). The GFP siRNA used for the negative control was 5′-[…]-3′ (SEQ ID NO: 4) (synthesized by Samchully Pharmaceutical, Korea).

H-Ras [3] = assay: H-Ras polyubiquitination in HEK293 cells with Gsk3β or Axin siRNA; conditions: siRNA knockdown, ALLN 12 hours (FIG. 1C)
Experimental: Next, HEK293 cells were transfected with vector/nonspecific siRNA, pSUPER-Axin siRNA, pCS2-MT-Axin, siGsk3β, and/or pcDNA3.1-Gsk3β-V5 together with pcDNA3.1-H-Ras and pCS4-3xFlag-Ub for 24 hours and then treated with ALLN for 12 hours. IP and immunoblotting were performed as described above.

H-Ras [4] = assay: IP/immunoblot of H-Ras polyubiquitination and β-TrCP interaction in HEK293 cells with Wnt3a
Experimental: HEK293 cells were transfected the pcDNA3.1-H-Ras, pcDNA3.1-H-Ras-T144E/T148E, or pcDNA3.1-H-Ras-T144A/T148A with vector, pcDNA3.1-Gsk3β-V5, and/or pcDNA3.1-Flag-β-TrCP, together with pCS4-3xHA-Ub, treated with ALLN for 12 hours and/or Wnt3a for 2 hours as indicated, and prepared for IP with anti-Myc antibody. IPs and WCEs were immunoblotted with anti-HA, -β-TrCP or -α-tubulin antibody.

## CCCC[C@@H](C=O)NC(=O)[C@H](CC(C)C)NC(=O)[C@H](CC(C)C)NC(C)=O [ALLN] (Ac-Leu-Leu-[Nle]-aldehyde)
[1]
  level of phosphor-mimetic form of H-Ras: increased
[2]
  accumulation of polyubiquitin-conjugated K- and N-Ras proteins: accumulation of polyubiquitin-conjugated K- and N-Ras proteins

## Gsk3β siRNA: siRNA for Gsk3β: 5′-CACUGAUUAUACCUCUAGU-3′ and 5′-CACUGUAACAUAGUCCGAU-3′ (chemistry not given here)
Pan-Ras
  levels of Pan-Ras polyubiquitination: decreased
H-Ras [3]
  H-Ras polyubiquitination: decreased

B1: Wnt3a: recombinant Wnt3a (protein, UniProt P56704 19-352, looked up)
Protein Wnt-3a: SYPIWWSLAVGPQYSSLGSQPILCASIPGLVPKQLRFCRNYVEIMPSVAEGIKIGIQECQHQFRGRRWNCTTVHDSLAIFGPVLDKATRESAFVHAIASAGVAFAVTRSCAEGTAAICGCSSRHQGSPGKGWKWGGCSEDIEFGGMVSREFADARENRPDARSAMNRHNNEAGRQAIASHMHLKCKCHGLSGSCEVKTCWWSQPDFRAIGDFLKDKYDSASEMVVEKHRESRGWVETLRPRYTYFKVPTERDLVYYEASPNFCEPNPETGSFGTRDRTCNVSSHGIDGCDLLCCGRGHNARAERRREKCRCVFHWCCYVSCQECTRVYDVHTCK
H-Ras [4]; Wnt3a, T144A/T148A H-Ras
  polyubiquitination of phospho-deficient form of H-Ras: not affected
H-Ras [4]; recombinant Wnt3a for 2 hours, Wt H-Ras
  polyubiquitination and interaction with β-TrCP of Wt H-Ras increased by Gsk3β transfection: blocked
